Experimental data taken from patent US20160095958A1, “BONE REGENERATION USING STROMAL VASCULAR FRACTION, PLATELET-DERIVED GROWTH FACTOR-RICH HYDROGEL, THREE-DIMENSIONAL PRINTED POLY-EPSILON-CAPROLACTONE SCAFFOLDS” (THE JOHNS HOPKINS UNIVERSITY, priority 2013, published 2016).

Experiments:
Type in all cases: cell-based, human
[1] = test system: ASCs; test: Monolayer osteogenic differentiation of ASCs (Alizarin Red S, calcium quantification); details: for calcium deposition per cell / total calcium deposition: ASCs in OM for 21 days, PDGF-BB 0, 2, 20 ng/mL or AG1295 0, 1, 10 μM
Method: (§1) Vascular medium (VM) consisted of: Endothelial Basal Medium-2 (Lonza), 6% FBS, 1% penicillin/streptomycin, 10 ng/mL VEGF165, 1 ng/mL FGF-2, and 1 μg/mL L-ascorbic acid-2-phosphate (Sigma). For monolayer osteogenic differentiation experiments, control medium consisted of low glucose DMEM (GIBCO Invitrogen), 6% FBS, and 1% penicillin/streptomycin; Osteogenic Medium (OM) consisted of control medium plus 10 mM β-glycerophosphate (Sigma) and 50 μM L-ascorbic acid-2-phosphate. For osteogenic differentiation in fibrin gels, OM also included 10 ng/mL VEGF165 and 1 ng/mL FGF-2 to support vascular viability. The composition of FGF-2 and dexamethasone in VM and OM were optimized to support both vascular and osteogenic development (FIG. 2). […] All growth factors were purchased from PeproTech.
(§2) For monolayer experiments, ASCs were seeded at 5000 cells/cm^2 and cultured in either control medium or OM for 21 days, with the addition of either PDGF-BB or PDGF receptor inhibitor tyrphostin AG1295 (Santa Cruz Biotechnology). Mineralization was assessed via Alizarin Red S staining and quantification of calcium content. For fibrin gel experiments, samples were cultured in VM for up to 8 days followed by up to 12 days of OM supplemented with VEGF and FGF-2. Mineralization was assessed via quantification of calcium content normalized to DNA content. For Alizarin Red S staining, monolayers were washed twice with PBS, fixed with 3.7% formaldehyde for 20 min, and then washed again three times. Samples were subsequently incubated for 10 min with 40 mM Alizarin Red S (Sigma) and washed extensively prior to imaging. To quantify calcium content in each sample, monolayers or whole fibrin gels were washed twice with PBS and then incubated with 0.5 N HCl overnight at 4° C. with agitation. Calcium content in the sample supernatants was quantified using a colorimetric Calcium LiquiColor Test (Stanbio). DNA content was quantified using a PicoGreen dsDNA quantitation kit (Molecular Probes) as previously described. Hutton D. L., et al., Tissue Eng Part A 18, 1729-40, 2012.
The effects of exogenous PDGF-BB on osteogenic differentiation and vascular morphogenesis of ASCs were studied independently. ASCs were cultured in OM for 21 days with the addition of either PDGF-BB (0 ng/mL, 2 ng/mL, or 20 ng/mL) or PDGF receptor inhibitor AG1295 (0 μM, 1 μM, or 10 μM).

[2] = test system: ASCs; test: Vascular morphogenesis of fibrin-encapsulated ASC spheroids in vascular medium
Method: Cells were trypsinized and resuspended at a concentration of 400,000 cells/mL (this concentration varied in the aggregation study where different cluster sizes were being compared) in culture medium containing 0.24% (w/v) methylcellulose (Sigma). The cell suspension was pipetted as 10 μL drops onto inverted Petri dish caps, which were then reverted and placed on dish bottoms containing sterile water to reduce evaporation. Dishes were incubated at 37° C. overnight to allow cellular aggregation at the air-liquid interface. The dish caps were then flooded with PBS to allow bulk collection and transfer of the spheroids to conical tubes.
(§3) Settled spheroid pellets were resuspended in fibrinogen (8 mg/mL final; Sigma), followed by the addition of thrombin (2.5 U/mL final; Sigma) to initiate gelation. Fibrin gels (35 μL) containing 40 spheroids each (in the aggregation study the number of spheroids per gel was varied to keep the total cell number constant) were pipetted into 6-mm diameter wells and incubated at 37° C. for 30 minutes to allow complete gelation prior to the addition of culture medium. Samples were then cultured for two to three weeks, depending on the experiment, with media changed every other day.
as §1
(§4) All incubation and washing steps were carried out at 4° C. with gentle agitation. Samples were fixed with 3.7% formaldehyde for 3 hrs, and then washed with PBS three times for 30 min each. Fixed gels were carefully removed from their wells and transferred to microcentrifuge tubes for subsequent staining procedures. Gels were permeabilized and blocked for 4 hrs with 0.2% triton X-100 and 5% normal goat serum (Sigma) in PBS with 0.1% Tween (PTw). Samples were then incubated overnight with primary antibodies diluted in blocking solution, followed by three 1-hr washes in PTw. Primary antibodies included: mouse anti-CD31 (4 μg/mL; Santa Cruz Biotechnology) and either rabbit anti-laminin (7 μg/mL; Sigma), rabbit anti-osteocalcin (10 μg/mL; Santa Cruz Biotechnology), or rabbit anti-NG2 (10 μg/mL; Millipore). Samples were then incubated overnight with DyLight 488-conjugated goat anti-mouse and DyLight 649-conjugated goat anti-rabbit (both 1:400; Jackson ImmunoResearch) diluted in blocking solution, followed by three 1-hr washes in PTw. Lastly, samples were blocked in 5% normal mouse serum for 4 hrs, incubated overnight with Cy3-conjugated mouse anti-αSMA (7 μg/mL; Sigma), and then washed three times for 1 hr each. Gels were mounted in 70% glycerol in chamber slides and imaged using a Zeiss LSM 510 confocal microscope with a 5× objective.
Confocal z-stacks of immunostained gels were z-projected and thresholded for subsequent quantification of vessel network parameters (n=6 images per group). Thresholded images were analyzed with AngioQuant software, Niemisto A., et al., IEEE Trans Med Imaging 24, 549-53, 2005, to quantify total vessel length, area, and interconnectivity. ImageJ software (NIH) was used to quantify pericyte coverage of vessels, which was defined as αSMA+ area within at least 5 μm of the abluminal face of vessel networks. […]

[3] = test system: adipose-derived stem cells (ASCs); test: Osteogenic differentiation of ASCs with transient cytokine exposure; details: IL-1β only for the first two days, then cultured without it
Source text: In each case, the cytokine was provided for the first two days of culture and removed for the remaining 19 days. The samples are stained for calcium deposition (red) which is indicative of new bone formation;
Accordingly, cells were provided with IL-1β only for the first two days and cultured in the absence of IL-1β for the remaining three weeks of culture.

[4] = test system: ASCs; test: Vascularized bone co-development: encapsulated ASC spheroids, VM 8 days then OM 12 days
Method: as §3
as §1, with “viability.” for “viability. The composition of FGF-2 and dexamethasone in VM and OM were optimized to support both vascular and osteogenic development (FIG. 2).”
as §2, §4

[5] = medium optimization with dexamethasone and FGF-2

In the case of `Cc1cc2ncc(-c3ccccc3)nc2cc1C` [AG1295, tyrphostin AG1295, reference compound], the “calcium deposition per cell” value [1] is reported as “unchanged relative to the OM only group”, the total calcium deposition [1] is reported as “decreased in a dose dependent manner” and the pericyte coverage ([2]; VM for 14 days) is reported as “only slightly reduced”.
With “FGF-2: fibroblast growth factor-2 (PeproTech)” the “calcium deposition in osteogenic cultures” value ([1]; 1 ng/mL FGF-2, dexamethasone 0 nM to 10 nM) was “significantly greater calcium deposition”, the “pericyte coverage in vascular cultures” value [2, 5] was “slight increase” and the “vessel network growth / length in vascular cultures” value [2, 5] was “slight increase”. For the same compound, the “vessel width in vascular cultures” value [2, 5] was “increased vessel width”.
For IL-1β: pro-inflammatory cytokine, the “ASC differentiation into bone-forming cells” value [3] was “dose dependent effect”.
In the case of “PDGF-BB: exogenous platelet-derived growth factor-BB, dimeric glycoprotein of two B chains, purchased from PeproTech”, the “calcium content versus control group (VM-OM)” value ([4]; 20 ng/mL) is reported as “substantially greater than both”, the “vascular network length versus control group (VM-OM)” value ([4]; 20 ng/mL) is reported as “substantially greater than both” and the “calcium deposition, PDGF-BB greater than BMP-2” value ([4]; 20 ng/mL each) is reported as 4.2 fold. The “calcium per cell, PDGF-BB greater than BMP-2” value ([4]; 20 ng/mL each) was 5.6 fold, the “total vascular network length, PDGF-BB higher than BMP-2” value ([4]; 20 ng/mL each) was 2.3 fold and the “calcium content per cell, greater than without PDGF-BB” value ([4]; 20 ng/mL throughout) was 5.2 fold. For the same compound, the “osteocalcin production (semiquantitative), greater than without PDGF-BB” value ([4]; 20 ng/mL throughout) was 1.4 fold, the “vascular network length, greater than without PDGF-BB” value ([4]; 20 ng/mL throughout) was 2.7 fold and the “αSMA intensity, less than without PDGF-BB” value ([4]; 20 ng/mL throughout) was 2.1 fold. The “calcium deposition per cell” value [1] was “significantly increased in a dose-dependent manner”, the total calcium deposition [1] was “significantly increased in a dose-dependent manner” and the “increase in total vessel length” value ([2]; 2 ng/mL, VM for 14 days) was 1.4 fold. For the same compound, the vessel width ([2]; 20 ng/mL, VM for 14 days) was “noticeably wider”, the “effect on total vessel length overall” value ([2]; VM for 14 days) was “did not have statistically significant effects” and the “reduction of pericyte coverage” value ([2]; VM for 14 days) was 2.9 fold.
